Read-outs that look alike come from different tables or passages of the source.
Experiments:
[1] = test system: P. falciparum NF54; assay: In vitro microplate assay against P. falciparum NF54 (3H-hypoxanthine incorporation); assay type: cell-based, Plasmodium falciparum; settings: read-out: P.f.NF54 IC50
Method: Serial drug dilutions of eleven 3-fold dilution steps covering a range from 100 to 0.002 µg/mL were prepared. […] After 48 h of incubation time, 0.05 mL of ^3H-hypoxanthine (=0.5 µCi) was added to each well of the plate. The plates were incubated for a further 24 h under the same conditions. Plates were then harvested using a BetaplateTM cell harvester (Wallac, Zurich, Switzerland). Red blood cells were transferred onto a glass fiber filter and then washed with distilled aqua demin. The dried filters were inserted into a plastic foil with 10 mL of scintillation fluid and counted in a BetaplateTM liquid scintillation counter (Wallac, Zurich, Switzerland). IC50 values were calculated from sigmoidal inhibition curves by linear regression using Microsoft Excel. […] Louis, MO, USA) was used as control.

[2] = Resazurin-based in vitro cytotoxicity with L-6 cells; assay type: cell-based, rat; settings: rat
Method: Serial drug dilutions of eleven 3-fold dilution steps covering a range from 100 to 0.002 µg/mL were prepared. After 70 h of incubation, the plates were inspected under an inverted microscope to assure growth of the controls and sterile conditions. […] The plates were read with a Spectramax Gemini XS microplate fluorometer (Molecular Devices Cooperation, Sunnyvale, CA, USA) using an excitation wavelength of 536 nm and an emission wavelength of 588 nm. IC50 values were calculated by linear regression from the sigmoidal dose–inhibition curves using SoftmaxPro software Version 8.2.1 (Molecular Devices Cooperation, Sunnyvale, CA, USA). Podophyllotoxin (Sigma P4405) was used as control.

[3] = Resazurin-based in vitro cytotoxicity with HepG2 cells; assay type: cell-based, human; settings: HepG2 cells; human hepatocarcinoma cells, 48 h
Method: The HepG2 cells were washed with DPBS (Dulbecco’s PBS without calcium and magnesium, Gibco, Cat #21600-044) and trypsinized with trypsin solution in DPBS. Trypsinization was stopped by adding culture medium, and after being stained with Trypan Blue (SORS Ukraine) cells were counted using a counting chamber (Hausser Scientific, Cat #3500). The cell suspension was placed in a falcon tube containing plating medium DMEM/High glucose with 1% fetal bovine serum, 100 units/mL penicillin, and 100 µg/mL streptomycin. Cells at a density of 250,000 cells/mL were seeded in sterile 384-well plates (Greiner Bio-One, Cat #781091) in a volume of […] and incubated at 37 °C and 5% CO2. Serial dilutions of ten 3-fold dilution steps of test and reference compounds covering a range from 100.0 to 0.005 µM were added to the wells, followed by incubation at 37 °C and 5% CO2 for 48 h. Then, resazurin (50 µM final concentration) was added and plates were incubated for another 3 h. The plates were read with a SpectraMax microplate reader (Molecular Devices Cooperation, Sunnyvale, CA, USA)) using an extinction wavelength of 555 nm and an emission wavelength of 570 nm. IC50 values were calculated using GraphPad Prism 9.0 charting software. Doxorubicin (Sigma Aldrich D1515) was used as control.

[4] = test system: K. pneumoniae ATCC 700603; assay: MIC/MBC microbroth dilution (EUCAST); assay type: cell-based; settings: Klebsiella pneumoniae, ATCC700603
Method: (§1) Minimum inhibitory concentrations (MIC values) were obtained using the microbroth dilution method as stated in the EUCAST guidelines. Tests were conducted on cation adjusted Mueller–Hinton broth (caMHB) or agar (caMHA). These were prepared and stored following the manufacturer’s guidelines. Biological organisms were prepared via growth on either Luria–Bertani (LB) or cation adjusted Mueller–Hinton agar plates. These were grown for 24 h at 37 °C, except for Micrococcus luteus where MICs took longer to grow and as a consequence were read after 48 h once a clear positive control could be observed. For the MIC experiment, the bacteria were prepared using the McFarland 0.5 standard and diluted 1 in 100 or 1 in 10 in caMHB following EUCAST and CSLI guidelines for the preparation of bacteria. Testing of the compounds using the microbroth dilution method took place in 96-well plates. Serial 2-fold dilutions of compounds in caMHB covering a range from 256 µg/mL to 0.25 µg/mL were prepared. Bacteria preparations (McFarland) were added to the compound dilutions, further halving the compound concentrations. The plate was then incubated for 18 h at 37 °C. Controls for the MIC experiments included a bacterial growth (positive) control of bacteria and caMHB only and a media only (negative) control. After incubation, the plates were read, whereby the positive control of bacteria was visible and the negative control was clear of contamination. The last clear well, where there is no growth of bacteria, was counted as the MIC value. […] The lowest concentration without any bacterial growth was counted as the MBC value. The following pathogens were used: Pseudomonas aeruginosa NCTC 13437, Escherichia coli NCTC 13353, Bacillus subtilis 168a, Serratia marcescens NCTC 9940, Micrococcus luteus ATCC 10240, Staphylococcus aureus JE2 USA 300, Acinetobacter baumannii ATCC 19606, and Klebsiella pneumoniae ATCC 700603. A concentration range of 256 µg/mL to 0.25 µg/mL of a combination of ciprofloxacin and meropenem against E. coli 25922 was used as an antibiotic control to ensure correct dilution and performance of the assay.

[5] = test system: P. aeruginosa NCTC 13437; assay: MIC/MBC microbroth dilution (EUCAST); assay type: cell-based; settings: Pseudomonas aeruginosa, NCTC13437
Method: as §1

[6] = test system: S. aureus JE2 USA 300; assay: MIC/MBC microbroth dilution (EUCAST); assay type: cell-based; settings: Staphylococcus aureus, USA300, S. aureus JE2 USA 300
Method: as §1

[7] = test system: S. marcescens NCTC 9940; assay: MIC/MBC microbroth dilution (EUCAST); assay type: cell-based; settings: Serratia marcescens, NCTC9940
Method: as §1

[8] = test system: E. coli NCTC 13353; assay: MIC/MBC microbroth dilution (EUCAST); assay type: cell-based, Escherichia coli; settings: for MBC: NCTC13353
Method: as §1

[9] = test system: A. baumannii ATCC 19606; assay: MIC/MBC microbroth dilution (EUCAST); assay type: cell-based, Acinetobacter baumannii; settings: for MBC: ATCC19606
Method: as §1

[10] = test system: B. subtilis 168a; assay: MIC/MBC microbroth dilution (EUCAST); assay type: cell-based, Bacillus subtilis
Method: as §1

[11] = test system: M. luteus ATCC 10240; assay: MIC/MBC microbroth dilution (EUCAST); assay type: cell-based, Micrococcus luteus
Method: as §1

[12] = Parallel artificial membrane permeability assay (PAMPA); settings: PAMPA, PBS pH 7.4, 200 µM, 5 h, room temperature; for Papp at 5 h, 200 µM: pH 7.4, Pe
Method: With the high-throughput PAMPA the newly synthesized compounds were tested for their passive permeability through cell membranes without the influence of efflux pumps or transporter proteins. The assay was performed using a Corning® Gentest^TM Precoated PAMPA Plate System (Corning, Glendale, AZ, USA) with 96-well polystyrene plates. The bottom of the acceptor plate consists of a porous membrane, whereby the pores are lined with a lipid–oil–lipid triple layer. Stock solutions of each test compound at 10 mM were prepared in DMSO or methanol and diluted with phosphate-buffered saline (PBS at a pH of 7.4) to a final concentration of 200 µM. […] The donor plate (bottom plate) was filled with the compound solutions, whereby all compounds were tested in quadruplicates. Each well of the acceptor plate (top plate) was filled with PBS buffer. Donor and acceptor plates were combined and incubated at room temperature for 5 h. After that, the plates were separated and 150 µL of each well of both plates were transferred to 96-well UV plates (Greiner Bio-One). Absorption at different wavelengths covering a range from 200 to 300 nm was measured using a SpectraMax M3 UV plate reader. […] The plates were analyzed at the wavelength where the R2 value of the calibration curve was higher than 0.99 [47].
Recovery of compounds from donor and acceptor wells (mass retention) was calculated as shown in the equation below. Data were only accepted when recovery exceeded 70%. The equation is as follows:(3) R=1−[cDt×VD+cAt×VA]/(c0×VD) where

[13] = Plasmodium falciparum, NF54, chloroquine-sensitive strain NF54, erythrocytic stages
[14] = Escherichia coli, NCTC13353, read-out: MIC
[15] = Acinetobacter baumannii, ATCC19606, read-out: MIC
[16] = Bacillus subtilis, 168A, read-out: MIC
[17] = Micrococcus luteus, ATCC10240, M. luteus ATCC 10240, read-out: MBC
[18] = Micrococcus luteus, ATCC10240, M. luteus ATCC 10240, read-out: MIC

IC50 [1, 13] [µM] | MIC [4] [µg/mL] | MIC [5] [µg/mL] | MIC [6] [µg/mL] | MIC [7] [µg/mL] | MIC [8, 14] [µg/mL] | MIC [9, 15] [µg/mL] | MIC [10, 16] [µg/mL] | MIC [11, 18] [µg/mL] | Papp at 5 h, 200 µM [12] [×10⁻⁶ cm/s] | Compound | IC50 at 70 h [2] [µM] | IC50 at 48 h [3] [µM] | MBC [4] [µg/mL] | MBC [5] [µg/mL] | MBC [6] [µg/mL] | MBC [7] [µg/mL] | MBC ([8]; Escherichia coli) [µg/mL] | MBC ([9]; Acinetobacter baumannii) [µg/mL] | MBC ([10]; Bacillus subtilis, 168A) [µg/mL] | MBC [11, 17] [µg/mL] | other results
1.66 | 256 | > 256 | 128 | > 256 | > 256 | 256 | 128 | 128 | 6.51 | O=C(Nc1ccc(N2CCNCC2)cc1)c1cccc(C(F)(F)F)c1Sc1ccc(F)cc1 [Compound 62, 2-[(4-Fluorophenyl)sulfanyl]-N-[4-(piperazin-1-yl)phenyl]-3-(trifluoromethyl)benz-amide] | 13.1 | 9.3 | 256 | > 256 | 128 | > 256 | > 256 | > 256 | 256 | 128 | Pe [12]: 4.41 10^−6 cm/s
4.7 | > 256 | > 256 | > 256 | > 256 | > 256 | > 256 | 256 | – | 11.7 | O=C(Nc1ccc(N2CCNCC2)cc1)c1cccc(F)c1Oc1ccc(F)cc1 [Compound 60, 3-Fluoro-2-(4-fluorophenoxy)-N-[4-(piperazin-1-yl)phenyl]benzamide] | 40.8 | 26.2 | > 256 | > 256 | > 256 | > 256 | > 256 | > 256 | 256 | – | –
0.692 | > 256 | 256 | – | 256 | 32 to 64 | 32 to 64 | 16 to 64 | 16 to 64 | 4.41 | O=C(Nc1ccccc1N1CCNCC1)c1cccc(C(F)(F)F)c1Sc1ccc(F)cc1 [Compound 55, 2-[(4-Fluorophenyl)sulfanyl]-N-[2-(piperazin-1-yl)phenyl]-3-(trifluoromethyl)benz-amide] | 7.06 | 4.6 | > 256 | > 256 | – | > 256 | 64 | 64 | – | 16 to 64 | IC50 ([1]; chloroquine-sensitive strain NF54, erythrocytic stages): 0.69 µM; MIC [8]: 64 µg/mL; MIC [9]: 32 µg/mL; MIC [10]: 32 µg/mL; MBC ([11]; M. luteus ATCC 10240): 16 µg/mL; MIC ([11]; M. luteus ATCC 10240): 16 µg/mL; Pe [12]: 6.51 10^−6 cm/s
2.04 | 128 | > 256 | 128 | > 256 | 256 | 256 | 128 | – | 14.2 | O=C(Nc1ccc(N2CCNCC2)cc1)c1ccccc1Oc1ccc(F)cc1 [Compound 59, 2-(4-Fluorophenoxy)-N-[4-(piperazin-1-yl)phenyl]benzamide] | 25.4 | 38.9 | 128 | > 256 | 128 | > 256 | > 256 | 256 | 128 | – | –
5.45 | > 256 | 256 | 256 | 256 | 256 | 128 | 128 | – | 7.03 | O=C(Nc1cccc(N2CCNCC2)c1)c1cccc(C(F)(F)F)c1Oc1ccc(F)cc1 [Compound 56, 2-(4-Fluorophenoxy)-N-[3-(piperazin-1-yl)phenyl]-3-(trifluoromethyl)benzamide] | 34.2 | 12.7 | > 256 | > 256 | 256 | > 256 | > 256 | 256 | 256 | – | –
3.15 | 128 | > 256 | 128 | > 256 | > 256 | 128 | 128 | – | 6.89 | O=C(Nc1ccc(N2CCNCC2)cc1)c1cccc(C(F)(F)F)c1Oc1ccc(F)cc1 [Compound 57, 2-(4-Fluorophenoxy)-N-[4-(piperazin-1-yl)phenyl]-3-(trifluoromethyl)benzamide] | 37.3 | 10.4 | 128 | > 256 | 128 | > 256 | > 256 | 256 | 256 | – | –
